From PubChem BioAssay AID1996
≈ marks a conversion by molar mass, not a printed value.

Settings: buffer; pH 7.4; 200.0 µM

solubility kinetic	Structure (SMILES)
3.8 µg/mL (≈ 11.2 µM)	CC(NC(=O)c1cc(Br)ccc1Cl)c1ccccc1 (stereo not drawn)
37.8 µg/mL (≈ 106 µM)	COc1ccc(CNC(=O)C(C)OC(=O)c2cccc(N(C)C)c2)cc1 (stereo not drawn)
45.8 µg/mL (≈ 144 µM)	Cc1cc(C)nc(SCC(=O)Nc2ccc3c(c2)OCO3)n1
40.6 µg/mL (≈ 141 µM)	O=S(=O)(NC1CCCCCC1)c1cccc(Cl)c1
2.6 µg/mL (≈ 8.51 µM)	CN(C)c1ccc(NC(=O)Nc2cccc3ccccc23)cc1
> 39.5 µg/mL	CCCC(=O)Nc1cc2c(cc1C(C)=O)OCCO2
42.4 µg/mL (≈ 130 µM)	OCCC1CN(Cc2cccnc2)CCN1CCc1ccccc1 (stereo not drawn)
3 µg/mL (≈ 11.6 µM)	COc1ccccc1/C=C1\N=C(C(C)(C)C)OC1=O
5.2 µg/mL (≈ 21.4 µM)	CNC(=O)c1cc2c(s1)-c1ccccc1CC2
1.7 µg/mL (≈ 5.78 µM)	O=C(NCc1ccc(-n2cccc2)cc1)c1cccc(F)c1
53.9 µg/mL (≈ 148 µM)	COc1cc(S(=O)(=O)NCc2ccc3c(c2)OCO3)c(OC)cc1C
38.6 µg/mL (≈ 145 µM)	O=C(Cc1ccccc1)N1CCC(c2ccccc2)C1 (stereo not drawn)
6.9 µg/mL (≈ 24.1 µM)	O=C(c1ccc(Cl)cc1)N1CCCCC(Cl)C1=O (stereo not drawn)
4.9 µg/mL (≈ 15.2 µM)	Cc1ccc(NC(=O)CCN2C(=O)c3ccccc3C2=O)c(C)c1
22.9 µg/mL (≈ 112 µM)	C/C(=N\O)c1ccc(Cl)cc1Cl
< 0.4 µg/mL	CC1=C(C(=O)OC(C)(C)C)C(c2cccc3ccccc23)NC(=O)N1 (stereo not drawn)
4.7 µg/mL (≈ 12.9 µM)	CCOC(=O)c1c(C)[nH]c(C(=O)COC(=O)c2cccnc2Cl)c1C
< 0.7 µg/mL	CC(=O)c1ccccc1NC(=O)COC(=O)/C=C/c1ccc(C)o1
0.8 µg/mL (≈ 2.6 µM)	Cc1cccc(C2NC(c3cccc(C)c3)C(C)C(=O)C2C)c1 (stereo not drawn)
> 48.1 µg/mL	CN(C(=O)COC(=O)c1ccc2ccccc2n1)c1ccccc1
24.3 µg/mL (≈ 69.5 µM)	CCOc1ccc(S(=O)(=O)NCc2ccc3c(c2)OCO3)cc1C
8.2 µg/mL (≈ 21.3 µM)	CC(NC(=O)COC(=O)c1ccc(N2CCCC2=O)cc1)c1ccc(F)cc1 (stereo not drawn)

solubility kinetic	Structure (SMILES)
> 41.3 µg/mL	O=C(CCC(=O)NC1CCCCC1)Nc1cccnc1
0.8 µg/mL (≈ 3.04 µM)	N#CC(C#N)=C1NC2(CCCCC2)Cc2ccccc21
> 48.7 µg/mL	CC(=O)Oc1ccc(C(=O)N2c3ccccc3NC(=O)C2C)cc1 (stereo not drawn)
22.7 µg/mL (≈ 121 µM)	COC(=O)c1ccc2nccnc2c1
> 46.2 µg/mL	O=C(COC(=O)c1ccccc1F)NC(=O)NC1CCCC1
2.6 µg/mL (≈ 5.82 µM)	COc1ccccc1NC(=O)COC(=O)c1ccc(S(=O)(=O)N2CCCCCC2)cc1
> 41.8 µg/mL	CCCCOc1cc(CC2CNC(=O)N2)ccc1OC (stereo not drawn)
> 47 µg/mL	CCN(C(=O)COc1ncnc2ccccc12)C1CCCCC1
> 45.6 µg/mL	N/C(=N\S(=O)(=O)c1ccc(Cl)cc1)N1CCOCC1
> 30.9 µg/mL	Cn1cccc1C(=O)NC1CCCCC1
> 31.1 µg/mL	C=CC(=O)NC1CC2CCC1(C)C2(C)C (stereo not drawn)
> 36 µg/mL	O=C(Nc1nccs1)c1cccnc1Cl
> 56.2 µg/mL	CCN(c1ccccc1)S(=O)(=O)c1ccc(C(=O)N2CCOCC2)cc1
< 0.2 µg/mL	Cc1ccc(C)c(NC(=O)Cn2cnc3c(oc4ccccc43)c2=O)c1
> 33.9 µg/mL	Cc1cc(C)cc(C(=O)Nc2ccncc2)c1
42.9 µg/mL (≈ 138 µM)	Cc1ccc(NC(=O)CN2CCCC2c2cccn2C)cc1C (stereo not drawn)
6 µg/mL (≈ 21.9 µM)	O=C(CNC(=O)c1ccc(Cl)cc1)c1ccccc1
> 58.8 µg/mL	CC(NC(=O)c1ccccc1Cl)C(=O)OCc1cn2cc(Cl)ccc2n1 (stereo not drawn)
22.2 µg/mL (≈ 76.2 µM)	Cc1noc(C)c1C(=O)Nc1nc2ccc(F)cc2s1
22.1 µg/mL (≈ 88.3 µM)	CSc1ccc(CN2CCCN(C)CC2)cc1
> 36.2 µg/mL	Cc1ccc(CNc2nc3ccccc3n2C)o1
> 40.1 µg/mL	CCOC(=O)c1cnc(SC)nc1N1CCCC1

The remaining lines, values behind:

Structure (SMILES)	solubility kinetic
O=C(NC(=O)c1ccccc1O)c1ccc2c(c1)CCO2	> 42.5 µg/mL
CCN1CCN(C(=O)C(N)Cc2ccccc2)CC1 (stereo not drawn)	37.5 µg/mL (≈ 143 µM)
CC(=O)NCc1ccc(-c2nc3ccccc3s2)cc1	8.6 µg/mL (≈ 30.5 µM)
N/C(=N\c1nc2ccccc2o1)NC(=O)c1cccc(Br)c1	< 0.2 µg/mL
O=C(NCCCNC(=O)c1ccccc1F)c1ccco1	43.4 µg/mL (≈ 150 µM)
O=C(c1ccccc1Cl)N1CCC(n2cccc2)CC1	42.2 µg/mL (≈ 146 µM)
O=C1CCC/C1=C/Nc1cccc(F)c1	23.6 µg/mL (≈ 115 µM)
O=C(CCCN1CCC2(CC1)C(=O)NCN2c1ccccc1)c1ccc(F)cc1	50.1 µg/mL (≈ 127 µM)
S=C(NCCCn1ccnc1)Nc1cccc(Cl)c1	> 44.2 µg/mL
CC(=O)c1ccc(NC(=O)c2cc3ccccc3o2)cc1	1 µg/mL (≈ 3.58 µM)
NC(=O)C1CCN(c2ccc(C(F)(F)F)cn2)CC1	> 41 µg/mL
O=C(COC(=O)/C=C/c1ccc2c(c1)OCO2)NCc1ccccc1	1.5 µg/mL (≈ 4.42 µM)
O=C(COC(=O)c1cncc(Br)c1)NC1CCCCC1	46.6 µg/mL (≈ 137 µM)
Cn1cccc1C(=O)OCC(=O)Nc1ccc2c(c1)OCO2	17.4 µg/mL (≈ 57.6 µM)
O=C(/C=C/c1ccccc1)Nc1cccc(S(=O)(=O)Nc2ccccc2F)c1	1 µg/mL (≈ 2.52 µM)
O=C1CC(=O)N(c2ccc(Cl)cc2)C(=O)N1	> 35.8 µg/mL
CCOC(=O)c1cnc(/N=C/N(C)C)s1	29.6 µg/mL (≈ 130 µM)
COC(=O)C(=C/C=C/c1cccnc1)C(=O)OC	> 37.1 µg/mL
COc1ccc(NC(=O)NCCc2ccc(Cl)cc2)cc1OC	< 0.4 µg/mL
O=C(NC1CCCCCCC1)c1cccnc1	32.5 µg/mL (≈ 140 µM)
CC(=O)c1ccc(NC(=S)NC2CCCC(C)C2C)cc1 (stereo not drawn)	9.7 µg/mL (≈ 31.9 µM)
O=S(=O)(c1cccc2nonc12)N1CCCCC1	> 40.1 µg/mL

Structure (SMILES)	solubility kinetic
NC(=O)C1CCCc2c1n(Cc1ccccc1)c1ccccc21 (stereo not drawn)	22.3 µg/mL (≈ 73.3 µM)
COc1ccnc2c1c(=O)n(Cc1ccc(F)cc1)c(=O)n2C	25.2 µg/mL (≈ 79.9 µM)
Cc1sc2ncn(-c3ccccc3)c(=O)c2c1C	5.6 µg/mL (≈ 21.8 µM)
COc1ccc(Cl)cc1/C=C/c1ccc2cccc(O)c2n1	0.8 µg/mL (≈ 2.57 µM)
CCC(=O)c1ccc(N2CCN(C(=O)c3ccc(F)cc3)CC2)c(F)c1	> 53.8 µg/mL
COC(=O)c1sccc1NC(=O)Nc1cccc(OC)c1	> 46 µg/mL
CCC(=O)c1ccc(OCC(=O)Nc2ccc3c(c2)OCCO3)cc1	12.2 µg/mL (≈ 35.7 µM)
Cc1sc2nc(SCC(=O)Nc3cccc(S(N)(=O)=O)c3)[nH]c(=O)c2c1C	6 µg/mL (≈ 14.1 µM)
O=C(/C=C/c1cccc(Br)c1)N1CCN(c2ccccn2)CC1	4.6 µg/mL (≈ 12.4 µM)
CCOc1ccc(NC(=O)CCN2C(=S)NC(C)(C)CC2C)cc1 (stereo not drawn)	41.5 µg/mL (≈ 119 µM)
Cc1ccc(C(=O)C(C)OC(=O)c2nc(Cl)ccc2Cl)cc1 (stereo not drawn)	> 50.7 µg/mL
O=C1CSC(=Nc2cccc(C(=O)O)c2)N1	> 35.4 µg/mL
C=CCNC(=O)c1ccc(CSc2nc3ccccc3s2)cc1	8.2 µg/mL (≈ 24.1 µM)
COc1ccc(C2C(C(=O)O)c3ccccc3C(=O)N2Cc2ccco2)cc1 (stereo not drawn)	> 56.6 µg/mL
COc1ccccc1NC(=O)Cn1c([N+](=O)[O-])cnc1C	> 43.5 µg/mL
O=S(=O)(NCc1ccc(Cl)cc1Cl)c1cccs1	40.6 µg/mL (≈ 126 µM)
Cc1ccc(-c2ccc(S(=O)(=O)NCC3CCCO3)cc2)cc1 (stereo not drawn)	1.6 µg/mL (≈ 4.83 µM)
N#C/C(=C\c1ccc(F)cc1)C(=O)NC1CCS(=O)(=O)C1 (stereo not drawn)	33.8 µg/mL (≈ 110 µM)
CC(=O)N1CCN(CCS(=O)(=O)c2cc(Cl)ccc2Cl)CC1	> 54.8 µg/mL
O=C(NC1CCOc2ccccc21)c1ccc(Cl)nc1 (stereo not drawn)	> 43.3 µg/mL
COc1ccc(NC(=O)CN2CCc3ccccc3C2)cc1OC	> 49 µg/mL
CCOc1ccc(NC(=O)Nc2ccccc2SC)cc1	1.4 µg/mL (≈ 4.63 µM)
